In patent US20250049802A1, “COMBINATION THERAPIES AND USES FOR TREATING CANCER” (Pfizer Inc., priority 2021, published 2025):

Assays:
[1] = system: HCC1428 breast cancer model; experiment: In vivo efficacy (tumor growth inhibition) in the HR+/HER2− HCC1428 breast cancer model; set-up: species or system female NSG mice
Protocol: HCC1428 cells (ATCC, CRL-2327) were maintained in PRMI-1640 medium, plus 10% FBS until ready for implant. HCC1428 model was established by serial in vivo propagation. To establish the HCC1428 donor mice, tumor cells (5×10^6 cell/mouse with 50% Cultrex® Basement Membrane Matrix) were subcutaneously implanted in female NSG mice with estrogen supplementation (SC implanted, in 0.36 mg 90-day release, Innovative Research of America, cat #NE-121). Once reaching a range of 700 to 800 mm3, donor tumors were subsequently transplanted into secondary recipient mice for a study expansion. In this study, the HCC1428 model was established by implanting passage 4 tumor fragments into recipient mice. […] TGI was assessed on Day 36 post first dose.
Tumor volume and body weights were measured twice a week after dosing initiation. Tumor volume i was calculated using the [(Length×Width×Width)/2)] formula. TGI was calculated as 100*(1−ΔT/ΔC). […]

[2] = system: ST941 PDX breast cancer model; experiment: In vivo efficacy (tumor growth inhibition) in the HR+/HER2− ST941 PDX model; set-up: species or system female athymic nude mice
Protocol: The HR+/HER2− PDX studies were performed at START (San Antonio, TX) using female athymic nude mice (Foxn1nu/Foxn1nu, JAX Laboratories). Mice received 8.5 μg/mL β estradiol drinking water during study. The live donor mice were established by implanting cryopreserved tumor fragments (around 70 mg). Once ready, the donor tumor fragments were subsequently transplanted into secondary recipient mice for a study expansion.
Palbocidib was dosed twice daily (7 hr apart). PF-06821497 and vehicle was dosed once daily. Fulvestrant was administered twice in the first week, then weekly afterwards. TGI was assessed on Day 36 post first dose.
Tumor volume and body weights were measured twice a week after dosing initiation. Tumor volume i was calculated using the [(Length×Width×Width)/2)] formula. TGI was calculated as 100*(1−ΔT/ΔC). The ΔC (ΔT) was obtained by subtracting the mean tumor burden in the vehicle (treated) group on the first day of treatment (Day 0) from the mean tumor burden in vehicle (treated) group on the assessment day. All mice received treatment continuously until the day of efficacy assessment. Statistical analysis was performed in GraphPad Prism with an unpaired t test, followed by Mann-Whitney test.
The ST941 tumor bearing mice were randomized into 4 groups when the mean tumor volume reached around 177 mm3 and subsequently treated.

Question: Which “% TGI (D36)” value ([1]; Day 36 post first dose, TGI = 100*(1−ΔT/ΔC), doses and schedules per Table 1) does the source give for `COc1cc(C)[nH]c(=O)c1CN1CCc2c(Cl)cc([C@H](OC)C3COC3)c(Cl)c2C1=O` [PF-06821497, 5,8-dichloro-2-[(4-methoxy-6-methyl-2-oxo-1,2-dihydro-pyridin-3-yl)methyl]-7-[(R)-methoxy(oxetan-3-yl)methyl]-3,4-dihydroisoquinolin-1(2H)-one] here?
Answer: 55%

Question: And the “antitumor efficacy vs vehicle” value ([1]; p<0.05 vs vehicle)?
Answer: significant antitumor efficacy

Question: What about the “% TGI (D18)” value ([2]; TGI = 100*(1−ΔT/ΔC), doses and schedules per Table 2) of the same compound?
Answer: 44.6%

Question: What about the “antitumor efficacy vs vehicle” value ([2]; p<0.05 vs vehicle) of the same compound?
Answer: significant antitumor efficacy
